Data as given in patent US8188105B2, “Therapeutic agent for inflammatory bowel disease comprising uracil derivative as active ingredient” (Taiho Pharmaceutical Co., Ltd., priority 2007, dated 2012).

Test system: DSS-induced mouse colitis
Experiment: Effect on improvement of pathological conditions in DSS-induced IBD model
Assay type: in vivo, mice (C57BL/6N Jcl)
Parameters: DAI Score (MEANS ± SD): scale not given here
Settings: 2% DSS day 1 to day 7, drug 30 mg/kg/day day 0 to day 7; for DAI Score (MEANS ± SD): DAI scores per Table 1 (body weight loss, stool hardness, fecal occult blood), day 8, control 5.3 ± 2.1; for Abnormal stool occurrence: mice with abnormal stool (loose stool, diarrhea, blood in stool) counted on day 8, n=6 per group, control 6, non-treatment 0
Description: This test was performed in accordance with the method described in PEDIATRIC RESEARCH, Vol. 53, No. 1, 143-147, 2003. […] Dextran sulfate sodium (hereinafter abbreviated as “DSS,” product of Wako Pure Chemical Industries, Ltd.) was dissolved in purified water to 2% w/v, and the solution was fed ad libitum to the mice for seven days through a liquid-feed bottle (day 1 to day 7), to thereby establish ulcerative colitis models. The test groups included a drug-non-administration group (control), and a uracil derivative (1)-administration (30 mg/kg/day) group. A non-treatment group was provided through feeding purified water instead of 2% aqueous DSS solution. The drug was administered for eight days from one day before start of feeding 2% aqueous DSS solution (i.e., from day 0 to day 7). The improvement effect was determined on the day following the final drug administration day (on day 8) by counting occurrence of abnormal stools (loose stool, diarrhea, and visual observation of presence of blood in stool).

| Structure (SMILES) | DAI Score (MEANS ± SD) | Abnormal stool occurrence |
| --- | --- | --- |
| Cl.O=c1[nH]c(CSc2nnc[nH]2)c(Cl)c(=O)[nH]1 [Compound 4, 5-chloro-6-(1,2,4-triazole-3-thiomethyl)uracil hydrochloride salt] | 0.22 ± 0.27 | 0 |
| N=C1NCCN1Cc1[nH]c(=O)[nH]c(=O)c1Cl [Compound 5, 5-chloro-6-(1-(2-iminoimidazolidinyl)methyl)uracil] | 0.28 ± 0.25 | 0 |
| O=c1[nH]c(CN2CCCC2)c(Cl)c(=O)[nH]1 [Compound 2, 5-chloro-6-(1-pyrrolidinylmethyl)uracil] | – | 3 |
| CNCc1[nH]c(=O)[nH]c(=O)c1Cl [Compound 1, 5-chloro-6-(methylaminomethyl)uracil] | – | 4 |
| O=c1[nH]c(CN2CCCC2)c(Br)c(=O)[nH]1 [Compound 6, 5-bromo-6-(1-pyrrolidinylmethyl)uracil] | 0.22 ± 0.27 | 2 |
| CN(CCO)Cc1[nH]c(=O)[nH]c(=O)c1Cl [Compound 3, 5-chloro-6-((N-(2-hydroxyethyl)-N-methylamino)methyl)uracil] | – | 3 |
